{
  "source": "patent US20250360071A1",
  "about": "“AGENT FOR INDUCING CILIUM” (MED R&D Co. Ltd, priority 2022, published 2025)",
  "key": {"HFDPCs": {"system": "HFDPCs", "test": "Co-culture system of Caco-2 and HFDPC, hair growth marker expression, Experimental Example 4", "type": "cell-based, human", "details": "added inside the Caco-2 insert; saponin mixture 5 μg/mL, finasteride 10 μM; after 2, 6 and 12 hours; vs control", "method": "An examination was carried out using a co-culture system of Caco-2 and an HFDPC which are human intestinal epithelial cell lines. FIG. 8 is a schematic view illustrating a co-culture system of the present Experimental Example. […] A permeable membrane having a pore size of […] was disposed on the bottom surface of the 96-well insert. […] In a case where the drug is permeable to the intestinal epithelial cells, with the addition of the drug into the inside of the transwell insert of the co-culture system, the drug permeates from the apex side (lumen side) to the basal side (vascular side) of the Caco-2 cells. Furthermore, the drug that permeated acts on the HFDPCs seeded on the receiver plate. A mixture in which each saponin was mixed at a ratio shown in Table 1 below (which may hereinafter be referred to as a “saponin mixture”) was used as a sample for the examination. The saponin mixture was added to the inside of the transwell insert of the co-culture system so that a concentration thereof was 5 μg/mL. Subsequently, the expression of the hair growth marker in the HFDPCs seeded on the receiver plate was measured by quantitative real-time PCR after 2 hours, 6 hours, and 12 hours. As the hair growth markers, a CTNNB1 gene (β-catenin), an ALPL gene (alkaline phosphatase), and an FGF1 gene (fiblobrast growth factor 1) were measured. […]"}, "C3H male mouse": {"system": "C3H male mouse", "test": "Hair growth promoting effect in vivo, application to depilated dorsal skin, Experimental Example 5", "method": "The oleanane-type triterpenoid was applied to the dorsal skin of a mouse and the hair growth promoting effect was examined. Maslinic acid was used as the oleanane-type triterpenoid. In addition, for comparison, a group in which minoxidil was used and a control group in which only a solvent was applied were prepared.\nFIG. 12 is a schematic view showing an experimental schedule. After acclimatization of a C3H male mouse, the dorsal skin was depilated with a shaver and a depilatory cream. Thereafter, 150 μL of 1% minoxidil (n=8), 1% maslinic acid (n=6), or a solvent (n=8) was applied to the mouse in each group every day for 20 days, and the mouse was observed over time.\nIt is known that the hair cycle of a mouse has three stages of an anagen, a catagen, and a telogen. During the anagen (the 1st day to the 16th day), the hair follicle grows into the deep subcutaneous part. In the catagen (the 17th day to the 19th day), the hair follicle stops growing and regresses to the upper subcutaneous part. In the telogen (the 20th day to the 29th day), the hair shaft is in a state where it can be lost at any time. It is known that the color of the dorsal skin of a mouse changes to pink, gray, and black due to the hair cycle. FIG. 13 is a view showing a change in the color of the dorsal skin of a mouse due to the hair cycle."}, "dorsal skin [1]": {"system": "dorsal skin", "test": "Transcriptome analysis and extended network analysis of dorsal skin, Experimental Examples 6 and 8", "type": "in vivo, mouse", "details": "20th day, 1% applied daily; maslinic acid group vs tieghemelin group", "method": "A mouse in each group of Experimental Example 5 and a mouse in the group which had been subjected to the same treatment as in Experimental Example 5 using 1% tieghemelin (n=6) were euthanized on the 20th day, and the dorsal skin was collected and subjected to transcriptome analysis.\n(§1) Extended network analysis was performed based on the results of the transcriptome analysis in Experimental Example 6. FIGS. 20 to 22 are views showing the results of the extended network analysis. FIG. 20 is an analysis result obtained from a dataset of the minoxidil treatment group, FIG. 21 is an analysis result obtained from a dataset of the maslinic acid treatment group, and FIG. 22 is an analysis result obtained from a dataset of the tieghemelin treatment group. In FIGS. 20 to 22, a white circle indicates a gene with increased expression, and a black circle indicates a gene with decreased expression. In addition, the size of the circle indicates the magnitude of a change in expression level."}, "dorsal skin [2]": {"system": "dorsal skin", "test": "Gene ontology (GO), GO enrichment and tissue-specific expression analysis of transcriptome, Experimental Example 7", "type": "in vivo, mouse", "details": "20th day; for functions specifically enriched among skin-tissue genes with increased expression (TSEA): functions not enriched in the minoxidil treatment group", "method": "Gene ontology (GO) analysis and GO enrichment analysis were performed based on the results of the transcriptome analysis in Experimental Example 6.\nSubsequently, term enrichment analysis of the genes with expression increased specifically with respect to the skin tissue was performed. Using tissue-specific expression analysis (TSEA), genes related to the skin tissue were filtered, and functions that were specifically enriched in the maslinic acid treatment group and the tieghemelin treatment group and were not enriched in the minoxidil treatment group were selected."}, "Iqcb1": {"system": "Iqcb1", "test": "Iqcb1 expression from transcriptome / extended network analysis, Experimental Example 8", "type": "in vivo, mouse", "details": "dorsal skin, 20th day, 1% applied daily", "method": "as §1\nDDX58 is an innate immune receptor that senses viral nucleic acids in the cytoplasm and activates a downstream signal transduction cascade leading to the production of type I interferons or inflammatory cytokines. IQCB1 is a protein known to be involved in formation of cilium."}, "hair cycle-related genes": {"system": "hair cycle-related genes", "test": "Fluctuation in expression of hair cycle-related genes from transcriptome, Experimental Example 9", "type": "in vivo, mouse", "details": "dorsal skin, 20th day", "source_text": "A fluctuation in expression of the hair cycle-related genes was examined, based on the results of the transcriptome analysis in Experimental Example 6."}, "dorsal skin [3]": {"system": "dorsal skin", "test": "Fluorescence immunostaining of dorsal skin tissue sections, Experimental Example 10", "type": "in vivo, mouse", "details": "20th day; for expression of K14 / expression of VEGF / expression of β-catenin: fluorescence immunostaining, dorsal skin", "source_text": "A mouse in each group of Experimental Examples 5 and 6 was euthanized on the 20th day, the dorsal skin was collected, and the tissue section was subjected to immunostaining.\nFIG. 23 is a photomicrograph showing the results of detecting the expressions of β-catenin and K14 by fluorescence immunostaining. In addition, the nuclei were stained with 4′,6-diamidino-2-phenylindole (DAPI). The β-catenin is a hair growth promoting marker and is also a marker for the start of the anagen. K14 is an epidermal marker and is known to increase with the differentiation of hair follicle stem cells.\nFIG. 24 is a photomicrograph showing the results of detecting the expression of VEGF by fluorescence immunostaining. In addition, the nuclei were stained with DAPI. VEGF is known to improve the vascularization of hair follicles, increase the size of hair follicles and hair, and promote the growth and circulation of hair follicles."}},
  "data": [
    {"smiles": "CC(C)(C)NC(=O)[C@H]1CC[C@H]2[C@@H]3CC[C@H]4NC(=O)C=C[C@]4(C)[C@H]3CC[C@]12C", "note": "[finasteride]", "values": [
      {"measurement": "expression of the hair growth marker (CTNNB1, ALPL, FGF1) in HFDPCs", "setting": "HFDPCs", "value": "induced the expression of the hair growth marker regardless of the treatment time"}
    ]},
    {"smiles": "CC1(C)CC[C@]2(C(=O)O)CC[C@]3(C)C(=CC[C@@H]4[C@@]5(C)C[C@@H](O)[C@H](O)C(C)(C)[C@@H]5CC[C@]43C)[C@@H]2C1", "note": "[maslinic acid]", "values": [
      {"measurement": "black area indicating the late anagen, vs control group", "setting": "C3H male mouse; 10th day, 1% applied daily", "value": "larger black area"},
      {"measurement": "speed of a transition from the telogen to the anagen (order)", "setting": "C3H male mouse; 10th day, 1% applied daily", "value": "Minoxidil≈Maslinic acid>Control group"},
      {"measurement": "hair cycle stage observed on the 20th day", "setting": "C3H male mouse; 20th day, 1% applied daily", "value": "transitioned to the next telogen"},
      {"measurement": "speed of transition to the telogen after the anagen and the catagen (order)", "setting": "C3H male mouse; 20th day, 1% applied daily", "value": "Minoxidil=Maslinic acid>Control group"},
      {"measurement": "hair cycle stage observed on the 10th day", "setting": "C3H male mouse; 150 μL of 1% applied daily, control transitioned from telogen to anagen on the 10th day", "value": "transition to the late anagen"},
      {"measurement": "influence on the body weight of the mouse", "setting": "C3H male mouse; 150 μL of 1% applied to dorsal skin every day for 20 days", "value": "No influence on the body weight"},
      {"measurement": "pattern of differentially expressed genes in the dorsal skins", "setting": "dorsal skin [1]", "value": "showed the same pattern"},
      {"measurement": "number of genes with decreased expression common among the minoxidil, maslinic acid and tieghemelin treatment groups", "setting": "dorsal skin [2]", "value": 316},
      {"measurement": "number of genes with decreased expression common between the minoxidil and maslinic acid treatment groups", "setting": "dorsal skin [2]", "value": "Seventy-two"},
      {"measurement": "number of genes with increased expression common among the minoxidil, maslinic acid and tieghemelin treatment groups", "setting": "dorsal skin [2]", "value": 342},
      {"measurement": "number of genes with increased expression common between the minoxidil and maslinic acid treatment groups", "setting": "dorsal skin [2]", "value": "Eighty-one"},
      {"measurement": "functions specifically enriched among skin-tissue genes with increased expression (TSEA)", "setting": "dorsal skin [2]", "value": "skin barriers, keratinocytes, proliferation of epithelial cells, pigmentation, and interactions between cytokines and cytokine receptors"},
      {"measurement": "Iqcb1 expression", "setting": "Iqcb1", "value": "upregulated"},
      {"measurement": "expression level of Iqcb1 compared with the minoxidil treatment group", "setting": "Iqcb1", "value": "increased more"},
      {"measurement": "expression level of BMP4", "setting": "hair cycle-related genes", "value": "decreased"},
      {"measurement": "expression of NF-κB", "setting": "hair cycle-related genes", "value": "decreased"},
      {"measurement": "sizes of the hair follicle and the hair shaft", "setting": "dorsal skin [3]; dorsal skin section", "value": "increased"},
      {"measurement": "expression of K14", "setting": "dorsal skin [3]", "value": "increase in the expression"},
      {"measurement": "expression of VEGF", "setting": "dorsal skin [3]", "value": "increased"},
      {"measurement": "expression of β-catenin", "setting": "dorsal skin [3]", "value": "increase in the expression"}
    ]},
    {"smiles": "C[C@@H]1O[C@@H](O[C@@H]2[C@@H](O)[C@H](O[C@@H]3[C@@H](O)[C@@H](O)[C@H](O[C@H]4[C@H](OC(=O)[C@]56CCC(C)(C)C[C@H]5C5=CC[C@@H]7[C@@]8(C)C[C@H](O)[C@H](O[C@@H]9O[C@H](C(=O)O)[C@@H](O)[C@H](O)[C@H]9O)[C@@](C)(CO)[C@@H]8[C@H](O)C[C@@]7(C)[C@]5(C)C[C@H]6O)OC[C@H](O)[C@@H]4O)O[C@H]3C)OC[C@H]2O)[C@H](O)[C@H](O)[C@H]1O", "note": "[tieghemelin]", "values": [
      {"measurement": "pattern of differentially expressed genes in the dorsal skins", "setting": "dorsal skin [1]", "value": "showed the same pattern"},
      {"measurement": "number of genes with decreased expression common among the minoxidil, maslinic acid and tieghemelin treatment groups", "setting": "dorsal skin [2]", "value": 316},
      {"measurement": "number of genes with decreased expression common between the minoxidil and tieghemelin treatment groups", "setting": "dorsal skin [2]", "value": "Ninety-four"},
      {"measurement": "number of genes with increased expression common among the minoxidil, maslinic acid and tieghemelin treatment groups", "setting": "dorsal skin [2]", "value": 342},
      {"measurement": "number of genes with increased expression common between the minoxidil and tieghemelin treatment groups", "setting": "dorsal skin [2]", "value": "One-hundred-twenty-eight"},
      {"measurement": "functions specifically enriched among skin-tissue genes with increased expression (TSEA)", "setting": "dorsal skin [2]", "value": "the proliferation of keratinocytes and epithelial cells, the control of the MAPK cascade, the intercellular adhesion, and the activation of the cytokine receptor interaction"},
      {"measurement": "Iqcb1 expression", "setting": "Iqcb1", "value": "upregulated"},
      {"measurement": "expression level of Iqcb1 compared with the minoxidil treatment group", "setting": "Iqcb1", "value": "increased more"},
      {"measurement": "expression level of Aepb1", "setting": "hair cycle-related genes", "value": "decreased"},
      {"measurement": "expression level of KRT15", "setting": "hair cycle-related genes", "value": "decreased"},
      {"measurement": "expression of NF-κB", "setting": "hair cycle-related genes", "value": "decreased"},
      {"measurement": "stage of the hair follicle from its shape", "setting": "dorsal skin [3]; dorsal skin section", "value": "anagen (II)"},
      {"measurement": "expression of K14", "setting": "dorsal skin [3]", "value": "highly expressed"},
      {"measurement": "expression of VEGF", "setting": "dorsal skin [3]", "value": "highly expressed"},
      {"measurement": "expression of β-catenin", "setting": "dorsal skin [3]", "value": "highly expressed"}
    ]}
  ]
}
